From patent publication US7129226B2, “Mimetic insect allatostatin analogs for insect control” (The United States of America as represented by the …, priority 1998, dated 2006)
Read-outs that look alike come from different tables or passages of the source. Blank lines part the entries; values can stand above or below the molecule they belong to. Ends that are not written are not given here. Peptide text beside a SMILES is read from it. carboranyl propanoic acid = 2-o-carboranylpropanoic acid

Assays:
[1] = test system: corpora allata of the cockroach Diploptera punctata (JH biosynthesis); test: In vitro radiochemical assay of JH biosynthesis/release by corpora allata; type: cell-based; details: for bioactivity (inhibition of JH biosynthesis): result in words
Experimental: Rates of JH release were determined by the in vitro radiochemical method of Feyereisen and Tobe (Anal. Biochem., 111:372–375, 1981) and as modified by Tobe and Clarke (Tobe and Clarke, Insect Biochem., 15:175–179, 1985). The incorporation of L[^14C—S-methyl]-methionine (50 μM, specific radioactivity 1.48–2.03 GBq/mmol from New England Nuclear or Amersham) into JH III at its penultimate step of biosynthesis by CA incubated in 50 μl TC 199 (GIBCO, 1.3 mM Ca^2+, 2% Ficoll, methionine-free) was used to quantify JH release. Animals were anaesthetized on ice prior to dissection. Corpora allata were dissected directly into non-radioactive medium (only animals with oviposited basal oocytes were used for assay). Samples were dried with nitrogen and resuspended in 10 μl 1N HCl. Radioactive medium was added and neutralized with 10 μl NaOH. Individual CA were transferred from non-radioactive medium to radioactive medium and were incubated for 3 h. The amount of inhibition was expressed as the percent reduction from the untreated rate: [1-(treated rate/untreated rate))] ×100%. Each value represents replicate incubations of a minimum of 8 tests.
D. punctata females mate almost immediately following emergence. Therefore, newly emerged, mated females were transferred each day from the stock culture to an incubator and kept at 27±1° C. The relative humidity was approximately 50% with a 12 hour light:dark cycle. Insects were reared on Purina Lab Chow and water. Mating was confirmed by the presence of a spermatophore. Basal oocyte length was also measured (day 5=1.44–1.68 mm). Only day 5 mated females were utilized for the degradation studies. Day 7 mated females (only with oviposited basal oocytes) were the source of corpora allata for analysis of JH biosynthesis.
Radiochemical assays were conducted as described in Example 1.

in vitro [2] = type: in vitro ADME, Diploptera punctata
Experimental: (§1) Day 5 mated female D. punctata were anaesthetized on ice before dissection. Following dissection, tissues were stored in saline (0.9% NaCl pH 7.0–7.2 or cockroach saline; […] at pH 7.2–7.4) on ice. Tissues were cleaned of fat body and trachea and guts were cleaned. Midgut peritrophic membrane was removed, midguts cut open, the guts gently pulled through forceps and then washed 3×. Tissues were stored at −70° C. until sufficient material was collected.
(§2) Tissues were pooled and homogenized in saline on ice in microcentrifuge tubes (2.5 ml) for 2 min with an Omni hand held homogenizer. Homogenates were centrifuged at 1000 g for ten min at 4° C. to remove cellular debris. The pellet was discarded. Supernatant was subsequently centrifuged at 30,000 g for 30 min. Pellet (crude membrane preparation) was washed three times in homogenization buffer and resuspended in saline using the Omni homogenizer.
(§3) Crude membrane preparation or hemolymph was aliquoted into 1.5 ml microcentrifuge tubes for in vitro assay. Dip-AST5 (6 μM) or analog was added to each assay tube from a 1 mM stock solution. Total incubation volume was 500 μl. Tubes were placed on a shaker at room temp for the duration of the incubation time. Incubations were terminated by the addition of 200 μl 30% aqueous TFA. Samples were centrifuged at 10,000 g and the supernatant was applied to a C18 solid phase extraction column. None of the potential, synthetic Dip-AST5 metabolites are lost (unpublished data). The 17–40% acetonitrile fraction was concentrated with a Speed-Vac apparatus and held at −70° C. until HPLC analysis. Samples is were diluted in 0.5 ml 0.1% aqueous TFA, filtered through 0.2 μm micro-spin filters and injected onto the HPLC column. Separation of allatostatins and their catabolites, or analogs and their catabolites, was performed using reversed-phase HPLC (see HPLC methods). When available, retention times of synthetic metabolites were used as a reference to identify endogenous metabolites. Dip-AST5 fragments were synthesized by the Institute for Biosciences and Technology, Dept. of Entomology, Texas A & M University. Dip-ASTs were synthesized by the Core Facility of Insect Biotech Canada (Department of Biochemistry, Queen's University) or obtained from Sigma Chemical Co., St. Louis, Mo. 63178 USA. The identity of fragments resulting from peptidase degradation was also confirmed by FAB mass spectrometry by adding samples in a glycerol medium (1.5 μl) onto a copper probe, followed by bombardment with 8 kV Xe atoms on a Kratos MS-50 mass spectrometer. (Kratos, Manchester, UK).
(§4) Degradation experiments were analyzed by RP-HPLC using a 220×4.6 mm Brownlee Phenyl column (5 μm) on a Spectra-Physics chromatography system with a Spectra-Physics Chromjet integrator and a Spectra-Physics 8490 detector. Following a 5 min wash with 1.5% acetonitrile in 0.1 aqueous TFA, a linear gradient of acetonitrile (15–37.5% in 50 min; 37.5–65% in 5 min) at a flow rate of 0.5 ml/min was used to elute peptides and analogs. Fractions (0.5 ml) were collected each minute during the gradient run.

brain peptidases = test: in vitro; type: in vitro ADME, Diploptera punctata; details: female, tissue homogenate; for half-life at 6 μM: Diploptera punctata
Experimental: as §1, §2, §3, §4

hemolymph peptidases = test: in vitro; type: in vitro ADME, Diploptera punctata; details: female, Diploptera punctata
Experimental: as §1
(§5) Hemolymph was collected following the method of King and Tobe (Insect Biochem., 18:793–805, 1988). Hemolymph was diluted 100× with saline.
as §3
as §4, with “Fractions (0.5 ml) were collected each minute during the gradient run.” left out

in vitro [3] = type: in vitro ADME, Diploptera punctata; remark: listed apart in the source
Experimental: as §1, §5, §3
as §4, with “Fractions (0.5 ml) were collected each minute during the gradient run.” left out

midgut peptidases = test: in vitro; type: in vitro ADME, Diploptera punctata; details: female, tissue homogenate
Experimental: as §1, §2, §3, §4

[4] = Penetration of analog through isolated cockroach cuticle (RPLC of well contents); type: in vitro ADME, American cockroach
Experimental: Adults of the American cockroach were obtained from. colonies at our facility (CMAVE). Animals, anesthetized by submersion in H2O for 30 min, were pinned ventral side up in a wax dissecting dish flooded with water. Lateral incisions along the margins of the abdominal sternites were made between segments 1–7. The epidermal layers including the cuticle and epidermal cells were lifted up and associated tissue was cleared using forceps prior to removal. The epidermal tissue was placed cell side up on a microscope slide and the cells were scraped from the cuticle using a glass cover slip. To further clean the cuticle of cellular debris the tissue was floated, cell side down, in a beaker containing H2O and subjected to sonication in a water bath at 30° C. for 30 min. The cuticle strips were then washed 3× in clean water. Pieces of cuticle, ca. 0.4 cm^2, composed of individual sternites without associated intersegmental membranes were then dissected away from remaining cuticle.
Incubation of cuticle was accomplished using the wells of ELISA plates (Corning, 96 well Easy Wash). […]
Dried samples were reconstituted in 35% acetonitrile (MeCN) (Burdick and Jackson) prior to analysis. […] Data acquired from analyses were reduced and analyzed using NCSS 97 software using regression analysis and T-Tests.

[5] = 3 h in vitro radiochemical assay, single 7-day mated CA, read-out: IC50, half-maximal inhibition of JH release

Molecule: CC(C)C[C@H](NC(=O)C1(NC(=O)[C@H](Cc2ccccc2)NC(=O)[C@H](CC(N)=O)NC(=O)CCc2ccccc2)CC1)C(N)=O [AST(b)φ2, Hca-Asn-Phe-Cpa-Leu-NH2] (HELM PEPTIDE1{[O=C(CCc1ccccc1)[*:2]].N.F.[O=C(C1(N[*:1])CC1)[*:2]].L.[am]}$$$$V2.0)
- IC50 [1, 5]: 1550 nM
- bioactivity (inhibition of JH biosynthesis) [1]: significant biological activity
- longer half-life than the native neuropeptide Dip-AST5 (in vitro [2]): 600 fold
- resistance to midgut peptidases (in vitro [2]): completely resistant
- Half-life, Midgut (in vitro [2]; tissue homogenate): ∞
- half-life at 6 μM (brain peptidases): 180 h
- half-life at 6 μM (hemolymph peptidases): 20.2 h
- longer half-life than the native neuropeptide Dip-AST5 (in vitro [3]): 8 fold
- resistance to degradation by enzymes (in vitro [3]): extreme resistance

Molecule: CC(C)C[C@H](NC(=O)C1(NC(=O)[C@H](Cc2ccccc2)NC(=O)[C@H](CC(N)=O)NC(=O)[C@H](Cc2ccc(O)cc2)NC(=O)[C@@H]2CCCN2C(=O)[C@H](CCCNC(=N)N)NC(=O)[C@H](C)N)CC1)C(N)=O [analog 397-2, Ala-Arg-Pro-Tyr-Asn-Phe-Cpa-Leu-NH2] (HELM PEPTIDE1{A.R.P.Y.N.F.[O=C(C1(N[*:1])CC1)[*:2]].L.[am]}$$$$V2.0; N-terminus assumed)
- IC50 [1, 5]: 172 nM
- bioactivity (inhibition of JH biosynthesis) [1]: significant bioactivity
- resistance to cleavage by membrane-bound enzymes (in vitro [2]): little resistance
- half-life at 6 μM (brain peptidases): 1.01 h
- half-life at 6 μM (midgut peptidases; Diploptera punctata): 0.347 h

Molecule: CC(C)C[C@H](NC(=O)CNC(=O)[C@H](Cc1ccccc1)NC(=O)[C@H](CC(N)=O)NC(=O)[C@H](Cc1ccc(O)cc1)NC(=O)CC1c2ccccc2-c2ccccc21)C(N)=O [analog 525] (HELM PEPTIDE1{[O=C(CC1c2ccccc2-c2ccccc21)[*:2]].Y.N.F.G.L.[am]}$$$$V2.0)
- release rate through the cuticle ([4]; 0.5 nmol applied to cuticle, rate stabilized after six hours): about 1.5 pmol/h
- penetration of the cuticle ([4]; cockroach cuticle, result in words): penetrated the cuticle effectively

Second part, led by results:

- IC50 ([1]; read-out: IC50): 2.12 nM
- resistance to cleavage by membrane-bound enzymes (in vitro [2]): little resistance
- half-life (brain peptidases): 0.287 h
- half-life (midgut peptidases): 0.377 h
Molecule: CC(C)C[C@H](NC(=O)CNC(=O)C1(NC(=O)[C@H](CC(N)=O)NC(=O)[C@H](Cc2ccc(O)cc2)NC(=O)[C@@H]2CCCN2C(=O)[C@H](CCCNC(=N)N)NC(=O)[C@H](C)N)Cc2ccccc2C1)C(N)=O [analog 396-1, Ala-Arg-Pro-Tyr-Asn-Aic-Gly-Leu-NH2] (HELM PEPTIDE1{A.R.P.Y.N.[O=C(C1(N[*:1])Cc2ccccc2C1)[*:2]].G.L.[am]}$$$$V2.0; N-terminus assumed)
- bioactivity (inhibition of JH biosynthesis) [1]: significant bioactivity

- IC50 [1, 5]: 3.12 nM
- IC50 ([1]; read-out: IC50): 3.1 nM
- half-life at 6 μM (in vitro [3]; female, Diploptera punctata): 2.55 h
Molecule: DRLYSFGL-NH2 [Dip-AST5, reference compound]

- EC50 ([1]; in another assay, read-out: activity (ED50)): 0.644 nM
Molecule: carboranyl propanoic acid-Ser-Phe-Gly-Leu-NH2 ({carboranyl propanoic acid}-SFGL-NH2)
